Measured values taken from patent publication US10597388B2, “Pyridazinone herbicides” (FMC CORPORATION, priority 2014, dated 2020).

Assays:
Assay in all cases: Test D controlled growth environment herbicide test, pre- and postemergence
Format in all cases: in vivo
[1] = test system: oat, wild (wild oat, Avena fatua)
How it was run: (§1)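 Pre-emergence: seeds sown in silt loam soil were sprayed with compound in a non-phytotoxic solvent mix containing surfactant. Post-emergence: plants at 2 to 18 cm (1- to 4-leaf stage) in peat moss/vermiculite medium got the same formulation. Visual 0–100 rating versus controls after 14 to 21 d.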

[2] = test system: radish, wild (wild radish, Raphanus raphanistrum)
How it was run: as §1

[3] = test system: speedwell (bird's-eye speedwell, Veronica persica)
How it was run: as §1

[4] = test system: pigweed (Amaranthus retroflexus)
How it was run: as §1

[5] = test system: wheat, spring (spring wheat, Triticum aestivum)
How it was run: as §1

[6] = test system: kochia (Kochia scoparia)
How it was run: as §1

[7] = test system: barley, winter (winter barley, Hordeum vulgare)
How it was run: as §1

[8] = test system: bluegrass (annual bluegrass, Poa annua)
How it was run: as §1

[9] = test system: blackgrass (Alopecurus myosuroides)
How it was run: as §1

[10] = test system: field poppy (Papaver rhoeas)
How it was run: as §1

[11] = test system: barley, spring (spring barley, Hordeum vulgare)
How it was run: as §1

[12] = test system: mustard, wild (wild mustard, Sinapis arvensis)
How it was run: as §1

[13] = test system: Russian thistle (Salsola kali)
How it was run: as §1

[14] = Postemergence, 31 g ai/ha, scale 0 to 100 (0 no effect, 100 complete control)
[15] = Postemergence, 125 g ai/ha, visual rating on scale 0 (no effect) to 100 (complete control), 14 to 21 d
[16] = Postemergence, 250 g ai/ha, scale 0 to 100 (0 no effect, 100 complete control)
[17] = Preemergence, 62 g ai/ha, scale 0 to 100 (0 no effect, 100 complete control)
[18] = Preemergence, 125 g ai/ha, scale 0 to 100 (0 no effect, 100 complete control)
[19] = Preemergence, 250 g ai/ha, scale 0 to 100, 0 no effect, 100 complete control
[20] = postemergence, 62 g ai/ha, scale 0 to 100, 0 no effect, 100 complete control

Cc1nn(C)c(=O)c(-c2ccc(Br)c3ccccc23)c1O [Compound 75]
Oat, Wild plant response rating [1, 14]: 50
Plant response rating, Oat, Wild [1, 15]: 85
Plant response rating, Oat, Wild [1, 16]: 80
Plant response rating (scale of 0 to 100), Oat, Wild ([1]; Preemergence, 31 g ai/ha): 55
Plant response rating, Oat, Wild [1, 17]: 65
Plant response rating, Oat, Wild [1, 18]: 80
Plant response rating, Oat, Wild [1, 19]: 85
Plant response rating, Oat, Wild [1, 20]: 70
Radish, Wild plant response rating [2, 14]: 95
Plant response rating, Radish, Wild [2, 15]: 100
Plant response rating, Radish, Wild [2, 16]: 100
Plant response rating (scale of 0 to 100), Radish, Wild ([2]; Preemergence, 31 g ai/ha): 40
Plant response rating, Radish, Wild [2, 17]: 70
Plant response rating, Radish, Wild [2, 18]: 100
Plant response rating, Radish, Wild [2, 19]: 100
Plant response rating, Radish, Wild [2, 20]: 100
Speedwell plant response rating [3, 14]: 80
Plant response rating, Speedwell [3, 15]: 100
Plant response rating, Speedwell [3, 16]: 100
Plant response rating (scale of 0 to 100), Speedwell ([3]; Preemergence, 31 g ai/ha): 95
Plant response rating, Speedwell [3, 17]: 100
Plant response rating, Speedwell [3, 18]: 100
Plant response rating, Speedwell [3, 19]: 100
Plant response rating, Speedwell [3, 20]: 100
Pigweed plant response rating [4, 14]: 100
Plant response rating, Pigweed [4, 15]: 100
Plant response rating, Pigweed [4, 16]: 100
Plant response rating (scale of 0 to 100), Pigweed ([4]; Preemergence, 31 g ai/ha): 85
Plant response rating, Pigweed [4, 17]: 100
Plant response rating, Pigweed [4, 18]: 100
Plant response rating, Pigweed [4, 19]: 100
Plant response rating, Pigweed [4, 20]: 100
Wheat, Spring plant response rating [5, 14]: 0
Plant response rating, Wheat, Spring [5, 15]: 5
Plant response rating, Wheat, Spring [5, 16]: 15
Plant response rating (scale of 0 to 100), Wheat, Spring ([5]; Preemergence, 31 g ai/ha): 0
Plant response rating, Wheat, Spring [5, 17]: 25
Plant response rating, Wheat, Spring [5, 18]: 35
Plant response rating, Wheat, Spring [5, 19]: 45
Plant response rating, Wheat, Spring [5, 20]: 0
Kochia plant response rating [6, 14]: 95
Plant response rating, Kochia [6, 15]: 100
Plant response rating, Kochia [6, 16]: 100
Plant response rating (scale of 0 to 100), Kochia ([6]; Preemergence, 31 g ai/ha): 65
Plant response rating, Kochia [6, 17]: 80
Plant response rating, Kochia [6, 18]: 80
Plant response rating, Kochia [6, 19]: 100
Plant response rating, Kochia [6, 20]: 100
Barley, Winter plant response rating [7, 14]: 0
Plant response rating, Barley, Winter [7, 15]: 0
Plant response rating, Barley, Winter [7, 16]: 5
Plant response rating (scale of 0 to 100), Barley, Winter ([7]; Preemergence, 31 g ai/ha): 0
Plant response rating, Barley, Winter [7, 17]: 0
Plant response rating, Barley, Winter [7, 18]: 0
Plant response rating, Barley, Winter [7, 19]: 0
Plant response rating, Barley, Winter [7, 20]: 0
Bluegrass plant response rating [8, 14]: 10
Plant response rating, Bluegrass [8, 15]: 15
Plant response rating, Bluegrass [8, 16]: 15
Plant response rating (scale of 0 to 100), Bluegrass ([8]; Preemergence, 31 g ai/ha): 15
Plant response rating, Bluegrass [8, 17]: 15
Plant response rating, Bluegrass [8, 18]: 10
Plant response rating, Bluegrass [8, 19]: 35
Plant response rating, Bluegrass [8, 20]: 10
Blackgrass plant response rating [9, 14]: 15
Plant response rating, Blackgrass [9, 15]: 65
Plant response rating, Blackgrass [9, 16]: 70
Plant response rating (scale of 0 to 100), Blackgrass ([9]; Preemergence, 31 g ai/ha): 15
Plant response rating, Blackgrass [9, 17]: 30
Plant response rating, Blackgrass [9, 18]: 40
Plant response rating, Blackgrass [9, 19]: 55
Plant response rating, Blackgrass [9, 20]: 20
Field Poppy plant response rating [10, 14]: 100
Plant response rating, Field Poppy [10, 15]: 100
Plant response rating, Field Poppy [10, 16]: 100
Plant response rating (scale of 0 to 100), Field Poppy ([10]; Preemergence, 31 g ai/ha): 0
Plant response rating, Field Poppy [10, 17]: 95
Plant response rating, Field Poppy [10, 18]: 100
Plant response rating, Field Poppy [10, 19]: 100
Plant response rating, Field Poppy [10, 20]: 100
Barley, Spring plant response rating [11, 14]: 0
Plant response rating, Barley, Spring [11, 15]: 0
Plant response rating, Barley, Spring [11, 16]: 0
Plant response rating (scale of 0 to 100), Barley, Spring ([11]; Preemergence, 31 g ai/ha): 0
Plant response rating, Barley, Spring [11, 17]: 0
Plant response rating, Barley, Spring [11, 18]: 0
Plant response rating, Barley, Spring [11, 19]: 0
Plant response rating, Barley, Spring [11, 20]: 0
Mustard, Wild plant response rating [12, 14]: 100
Plant response rating, Mustard, Wild [12, 15]: 100
Plant response rating, Mustard, Wild [12, 16]: 100
Plant response rating (scale of 0 to 100), Mustard, Wild ([12]; Preemergence, 31 g ai/ha): 55
Plant response rating, Mustard, Wild [12, 17]: 35
Plant response rating, Mustard, Wild [12, 18]: 100
Plant response rating, Mustard, Wild [12, 19]: 95
Plant response rating, Mustard, Wild [12, 20]: 100
Russian Thistle plant response rating [13, 14]: 80
Plant response rating, Russian Thistle [13, 15]: 85
Plant response rating, Russian Thistle [13, 16]: 85
Plant response rating (scale of 0 to 100), Russian Thistle ([13]; Preemergence, 31 g ai/ha): 0
Plant response rating, Russian Thistle [13, 17]: 0
Plant response rating, Russian Thistle [13, 18]: 25
Plant response rating, Russian Thistle [13, 19]: 35
Plant response rating, Russian Thistle [13, 20]: 80
